For assay [1], the target named is T1, MAGL (Mus musculus, UniProt O35678).
T1 sequence (O35678 1-303): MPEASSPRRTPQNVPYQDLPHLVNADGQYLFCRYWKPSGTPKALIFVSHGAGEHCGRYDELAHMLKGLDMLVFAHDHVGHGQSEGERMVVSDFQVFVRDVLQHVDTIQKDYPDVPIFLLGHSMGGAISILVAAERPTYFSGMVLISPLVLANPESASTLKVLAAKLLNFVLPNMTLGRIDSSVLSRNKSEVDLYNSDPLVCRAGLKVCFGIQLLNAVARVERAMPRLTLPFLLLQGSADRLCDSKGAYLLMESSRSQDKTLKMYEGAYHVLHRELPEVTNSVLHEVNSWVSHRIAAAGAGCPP
Description: Mouse brain proteomes from inhibitor treated mice (oral gavage, sacrificed 4 h after administration). Details: mouse brain membrane fraction for mouse assays; from tissue; host or cells: mouse brain (membrane fraction in vitro; brain proteomes of treated C57Bl/6J mice in vivo). The following applies: 5 mg/kg oral gavage, brain proteome 4 h after administration, read-out: MAGL % inh. 5 mg/kg (mouse). Format: in vivo.

For assay [2], the target named is T2, MAGL (Homo sapiens, UniProt Q99685).
T2 sequence (Q99685 1-303): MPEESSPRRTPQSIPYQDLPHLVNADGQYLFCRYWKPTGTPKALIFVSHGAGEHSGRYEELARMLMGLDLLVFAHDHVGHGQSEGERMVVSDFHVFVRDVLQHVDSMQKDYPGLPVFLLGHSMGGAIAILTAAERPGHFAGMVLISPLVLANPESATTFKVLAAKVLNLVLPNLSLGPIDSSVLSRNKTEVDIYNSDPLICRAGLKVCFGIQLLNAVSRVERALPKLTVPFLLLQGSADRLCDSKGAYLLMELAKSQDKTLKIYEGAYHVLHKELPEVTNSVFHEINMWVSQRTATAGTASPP
The assay can be described thus: In vitro competitive activity-based protein profiling, MAGL, human. The following applies: read-out: MAGL % inh. 1 μM (human).

The target of assay [3] is T3, FAAH (Mus musculus, UniProt O08914).
T3 sequence (O08914 1-579): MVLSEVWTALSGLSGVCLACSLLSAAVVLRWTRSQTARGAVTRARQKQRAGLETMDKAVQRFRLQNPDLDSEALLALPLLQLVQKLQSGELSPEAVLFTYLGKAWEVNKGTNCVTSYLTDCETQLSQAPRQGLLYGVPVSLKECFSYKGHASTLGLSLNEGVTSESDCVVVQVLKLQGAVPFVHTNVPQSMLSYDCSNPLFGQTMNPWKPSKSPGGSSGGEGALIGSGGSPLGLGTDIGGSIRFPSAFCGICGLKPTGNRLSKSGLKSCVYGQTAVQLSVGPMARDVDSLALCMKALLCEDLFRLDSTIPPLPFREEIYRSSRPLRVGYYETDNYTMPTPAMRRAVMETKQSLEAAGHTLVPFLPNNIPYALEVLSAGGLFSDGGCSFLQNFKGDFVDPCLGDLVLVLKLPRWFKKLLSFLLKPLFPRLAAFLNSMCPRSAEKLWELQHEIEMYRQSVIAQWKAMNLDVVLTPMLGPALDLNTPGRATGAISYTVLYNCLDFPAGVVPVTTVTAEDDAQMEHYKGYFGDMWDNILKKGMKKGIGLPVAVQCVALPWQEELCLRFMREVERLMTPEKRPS
The assay can be described thus: In vitro competitive activity-based protein profiling, FAAH, mouse. The following applies: read-out: FAAH % inh. 1 μM (mouse).

Assay [4] addresses T4, FAAH (Homo sapiens, UniProt O00519).
T4 sequence (O00519 1-579): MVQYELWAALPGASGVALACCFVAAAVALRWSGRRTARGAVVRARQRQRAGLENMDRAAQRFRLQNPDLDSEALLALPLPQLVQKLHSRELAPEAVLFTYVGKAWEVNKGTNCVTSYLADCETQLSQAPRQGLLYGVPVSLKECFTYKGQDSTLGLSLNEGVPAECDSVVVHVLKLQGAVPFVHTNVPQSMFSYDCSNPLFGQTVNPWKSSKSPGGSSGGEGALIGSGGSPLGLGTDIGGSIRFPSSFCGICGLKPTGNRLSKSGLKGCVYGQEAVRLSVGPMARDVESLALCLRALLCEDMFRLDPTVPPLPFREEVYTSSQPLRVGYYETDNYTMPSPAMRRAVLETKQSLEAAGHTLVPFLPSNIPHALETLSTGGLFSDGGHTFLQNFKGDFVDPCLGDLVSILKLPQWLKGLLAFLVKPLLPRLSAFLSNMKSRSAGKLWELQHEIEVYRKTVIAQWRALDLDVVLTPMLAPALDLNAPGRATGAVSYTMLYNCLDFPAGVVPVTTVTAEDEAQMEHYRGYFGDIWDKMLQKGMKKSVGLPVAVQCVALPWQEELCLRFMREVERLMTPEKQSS
The assay can be described thus: In vitro competitive activity-based protein profiling, FAAH, human. Particulars: for inhibition at 1 µM: read-out: FAAH % inh. 1 μM (human).

Assay [5] deals with T3, FAAH. The assay can be described thus: Mouse brain proteomes from inhibitor treated mice (oral gavage, sacrificed 4 h after administration), FAAH. Details: mouse brain membrane fraction for mouse assays; from tissue; host or cells: mouse brain (membrane fraction in vitro; brain proteomes of treated C57Bl/6J mice in vivo). Particulars: 5 mg/kg oral gavage, brain proteome 4 h after administration, read-out: FAAH % inh. 5 mg/kg (mouse). Format: in vivo.

Assay [6] addresses T1, MAGL. Description: In vitro competitive activity-based protein profiling, MAGL, mouse. Particulars: read-out: MAGL % inh. 1 μM (mouse).

The IC50 is the concentration needed to halve the response being measured. A higher IC50 goes with lower potency.

As for `O=C(O)c1ccn(C(=O)N2CCN(Cc3ccc(C(F)(F)F)cc3N3CC[C@H](F)C3)CC2)n1` [Example 92, (S)-1-(4-(2-(3-fluoropyrrolidin-1-yl)-4-(trifluoromethyl)benzyl)-piperazine-1-carbonyl)-1H-pyrazole-3-carboxylic acid], the inhibition at 5 mg/kg in assay [1] and in assay [5] was 0 to 25% throughout. Moreover, the inhibition at 1 µM in assay [2] is greater than 75%; in assay [3], 0 to 25%; in assay [4], 0 to 25%; in assay [6], greater than 75%. The compound also displayed an IC50 in assay [4] of 1 to 10 µM.
In the case of `Cc1cn(C(=O)N2CCC3(CC2)CN(Cc2ccc(C(F)(F)F)cc2N2CCCC2)C3)nc1C(=O)O` [Example 135, 4-methyl-1-(2-(2-(pyrrolidin-1-yl)-4-(trifluoromethyl)benzyl)-2,7-diazaspiro[3.5]non-ane-7-carbonyl)-1H-pyrazole-3-carboxylic acid], the inhibition at 5 mg/kg in assay [1] and in assay [5] was 0 to 25% in each case. Also, the inhibition at 1 µM in assay [2] was greater than 75%; in assay [3], 0 to 25%; in assay [4] it was 0 to 25%; in assay [6], greater than 75%.
For `CN(Cc1ccc(C(F)(F)F)cc1N1CCOCC1)C1(C)CCN(C(=O)n2ccc(C(=O)O)n2)CC1` [Example 4, 1-(4-Methyl-4-(methyl(2-morpholino-4-(trifluoromethyl)benzyl)amino)piperidine-1-carbonyl)-1H-pyrazole-3-carboxylic Acid], the inhibition at 5 mg/kg in assay [1] and in assay [5] was 0 to 25% throughout. In addition, the inhibition at 1 µM is greater than 75% in assay [2], 0 to 25% in assay [3], 0 to 25% in assay [4] and greater than 75% in assay [6].
As for `C[C@H]1CCCN1c1cc(C(F)(F)F)ccc1CN1CCN(C(=O)n2ccc(C(=O)O)n2)CC1` [Example 104, (S)-1-(4-(2-(2-methylpyrrolidin-1-yl)-4-(trifluoromethyl)benzyl)piperazine-1-carbonyl)-1H-pyrazole-3-carboxylic acid], the inhibition at 5 mg/kg in assay [1] and in assay [5] was 0 to 25% each time. For the same compound, the inhibition at 1 µM is greater than 75% in assay [2], 0 to 25% in assay [3], 0 to 25% in assay [4] and greater than 75% in assay [6].
As for `O=C(O)c1ccn(C(=O)N2CC3CN(Cc4ccc(N5CCCC5)cc4C(F)(F)F)CC3C2)n1` (stereo not shown) [Example 123, 1-(5-(4-(pyrrolidin-1-yl)-2-(trifluoromethyl)benzyl)octahydro-pyrrolo[3,4-c]pyrrole-2-carbonyl)-1H-pyrazole-3-carboxylic acid], the inhibition at 5 mg/kg in assay [1] and in assay [5] was 0 to 25% each time. Also, the inhibition at 1 µM in assay [2] is greater than 75%; in assay [3], greater than 75%; in assay [4], 50 to 75%; in assay [6], greater than 75%.
In the case of `O=C(O)c1ccn(C(=O)N2CCN(Cc3ccc(C(F)(F)F)cc3N3CCN(C4CC4)CC3)CC2)n1` [Example 6, 1-(4-(2-(4-Cyclopropylpiperazin-1-yl)-4-(trifluoromethyl)benzyl)piperazine-1-carbonyl)-1H-pyrazole-3-carboxylic Acid], the inhibition at 5 mg/kg in assay [1] and in assay [5] was 0 to 25% in each case. Moreover, the inhibition at 1 µM in assay [2] was greater than 75%; in assay [3], 0 to 25%; in assay [4] it was 0 to 25%; in assay [6] it was greater than 75%.
Regarding `O=C(O)c1ccn(C(=O)N2CCC3(CCCN3Cc3ccc(C(F)(F)F)cc3Cl)CC2)n1` [Example 76, 1-(1-(2-chloro-4-(trifluoromethyl)benzyl)-1,8-diazaspiro[4.5]decane-8-carbonyl)-1H-pyrazole-3-carboxylic acid], the inhibition at 5 mg/kg in assay [1] and in assay [5] was 0 to 25% each time. Besides, the inhibition at 1 µM is greater than 75% in assay [2], 0 to 25% in assay [3], 0 to 25% in assay [4] and greater than 75% in assay [6].

The record behind these values is US10266497B2 (ABIDE THERAPEUTICS, INC., priority 2017, dated 2019).
